Measurements from patent US9446146B2, “Methods and agents for improving targeting of CD138 expressing tumor cells” (BIOTEST AG, priority 2007, dated 2016).

Columns and labels:
[1] = tested on: MOLP-8 human multiple myeloma xenografts; experiment: Xenograft mouse experiments A Part I, MOLP-8, single iv bolus; assay type: in vivo, CB.17 SCID mice; conditions: for tumor growth compared with PBS-treated animals: single iv bolus 250 μg/kg (nBT062 antibody […])
Protocol: In these mice, subcutaneous tumors were established (female CB.17 SCID mice) by inoculation with MOLP-8 cell suspensions. Treatment with a single bolus intravenous injection was conducted when tumor volumes reached an average 113 mm^3. Changes in tumor volume and body weight were monitored twice per week.
Each mouse was inoculated with 1×10^7 MOLP-8 cells subcutaneously into the area under the right shoulder. The total volume was 0.2 ml per mouse, in which the ratio of serum-free medium to matrigel (BD Bioscience, Bedford, Mass.) was 1/1 (v/v). Prior to treatment, the xenograft tumors were monitored daily and were allowed to become established.
Eleven days after tumor cell inoculation, 42 mice were selected based on tumor volumes and body weights. […] The forty-two mice were randomly divided into seven groups (A-G) of six animals each based on tumor volume.
Each of six mice in Group A received 200 μl of PBS as vehicle control.
All agents were intravenously administered as a single bolus injection through a lateral tail vein with a 1 ml syringe fitted with a 27 gauge, ½ inch needle.

[2] = tested on: MOLP-8 tumor xenografts; experiment: Bulky MOLP-8 tumor model (Part II / Xenograft mouse experiments B); assay type: in vivo, SCID mice; conditions: 450 μg/kg dose; mean time to reach 160 mm^3 minus control
Protocol: In a second set of experiments, MOLP-8 cells (1.5×10^7 cells per mouse), suspended in a 50:50 mixture of serum free media and matrigel were injected subcutaneously in the area under the right shoulder in 100 μl. Tumor volumes reached about 80 mm^3 at day 11 and the mean of the controls was about 750 mm^3 at day 25, post cell inoculation. […] Each mouse in the control group (n=6) received 0.2 ml of sterile PBS administered into the lateral tail vein (i.v.) in a bolus injection. All treatment doses were based on conjugated maytansinoid. […] Mice were randomized into eleven groups (n=6) by tumor volume using the LabCat Program. The tumor volumes ranged from 40.0 to 152.5 mm^3. The mice were dosed based on the individual body weight.
Tumor size was measured twice per week in three dimensions using the LabCat System (Tumor Measurement and Tracking, Innovative Programming Associated, Inc., Princeton, N.J.).
In this set of experiments, eighty-five mice were inoculated with MOLP-8 cells (1.5×10^7 cells/mouse) subcutaneously in the right shoulder. […] Sixty-six SCID mice bearing bulky MOLP-8 tumors with a mean tumor volume of about 80 mm^3 were randomized into eleven treatment groups (n=6).

| Molecule | tumor growth compared with PBS-treated animals [1] | homogeneity of anti-tumor activity in individual mice ([1]; single iv 250 μg/kg, FIG. 9) | TGD* [2] |
| --- | --- | --- | --- |
| COc1cc2cc(c1Cl)N(C)C(=O)C[C@H](OC(=O)[C@H](C)N(C)C(=O)CCC(C)(C)S)[C@]1(C)O[C@H]1[C@H](C)[C@@H]1C[C@@](O)(NC(=O)O1)[C@H](OC)/C=C/C=C(\C)C2 [DM4, N^2′-deacetyl-N^2′-(4-methyl-4-mercapto-1-oxopentyl)-maytansine] | did not cause any significant inhibition of tumor growth |  |  |
| B-B4-SPP-DM1 | marked delay in tumor growth | more heterogeneously and therefore less predicable |  |
| nBT062-DM1 |  |  | 18 days |
| huC242-DM4 (conjugate, chains of the INN, looked up, DM4 maytansinoid payload) VH: QVQLVQSGAEVKKPGETVKISCKASDYTFTYYGMNWVKQAPGQGLKWMGWIDTTTGEPTYAQKFQGRIAFSLETSASTAYLQIKSLKSEDTATYFCARRGPYNWYFDVWGQGTTVTVSS VL: DIVMTQSPLSVPVTPGEPVSISCRSSKSLLHSNGNTYLYWFLQRPGQSPQLLIYRMSNLVSGVPDRFSGSGSGTAFTLRISRVEAEDVGVYYCLQHLEYPFTFGPGTKLELK | did not cause any significant inhibition of tumor growth |  |  |
